Experimental data: US9040534B2, “[1,2,4]triazolo[4,3-a]pyrazines as P2X7 modulators” (Janssen Pharmaceutica NV, priority 2013, dated 2015)

Tests used:
[1] = biological target: T1, P2X7 (Homo sapiens (Human), UniProt Q99572); assay: P2X7 antagonism in human PBMCs (LPS + Bz-ATP induced IL-1β release, ELISA); assay type: cell-based; conditions: 0.5 mM Bz-ATP; for remaining activity at 10 µM: P2X7, 10 μM compound, human PBMC, read-out: PBMC 10 μM (% control); for PBMC 1 μM (% control): 1 μM compound
T1 sequence (Q99572 whole entry): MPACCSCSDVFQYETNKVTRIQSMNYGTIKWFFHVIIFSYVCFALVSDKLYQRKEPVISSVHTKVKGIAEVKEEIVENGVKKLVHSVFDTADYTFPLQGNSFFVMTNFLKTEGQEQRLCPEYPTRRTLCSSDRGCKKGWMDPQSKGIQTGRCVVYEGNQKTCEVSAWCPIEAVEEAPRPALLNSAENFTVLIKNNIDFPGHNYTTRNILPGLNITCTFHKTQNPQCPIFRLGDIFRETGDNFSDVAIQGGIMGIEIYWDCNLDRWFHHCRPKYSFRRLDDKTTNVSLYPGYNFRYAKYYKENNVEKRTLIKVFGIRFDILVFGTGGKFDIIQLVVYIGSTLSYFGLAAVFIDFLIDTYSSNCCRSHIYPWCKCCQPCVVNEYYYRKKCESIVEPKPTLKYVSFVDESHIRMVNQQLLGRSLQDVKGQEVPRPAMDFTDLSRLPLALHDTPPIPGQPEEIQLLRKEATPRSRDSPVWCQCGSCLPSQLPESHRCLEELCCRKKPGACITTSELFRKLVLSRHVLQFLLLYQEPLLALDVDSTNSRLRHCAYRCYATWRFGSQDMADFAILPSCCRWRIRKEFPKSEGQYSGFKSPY
Description: Human blood was collected using a blood donor program. PBMCs were isolated from blood using a Ficoll density gradient technique. Briefly, blood was laid on Ficoll solution and centrifuged at RT for 20 minutes at 2000 rpm. The buffy layer (between red blood cells and plasma) was carefully collected by aspiration, washed with PBS and centrifuged again at 1500 rpm for 15 minutes. The resulting cell pellet was washed and plated on 96 well-plates for experiments. For the Mouse/Human Whole Blood experiments, 150 μl of either mouse or human blood was platted on 96 well-plates. Lipopolysaccharide (LPS) (30 ng/ml) was added to each well and incubated for 1 hour. Test compounds were then added and incubated for 30 minutes. The P2X7 agonist, 2′(3′)-O-(4-benzoylbenzoyl) adenosine 5′-triphosphate (Bz-ATP) was then added at a final concentration of 0.5 mM (PBMC) or 1 mM (blood). Cells were incubated for an additional 1.5 hours. At that point, supernatant was collected and stored for IL-1β assay using manufacturer's protocol for enzyme-linked immunosorbent assay (ELISA). Data was expressed as percent control, where control is defined as the difference in IL-1β release in LPS+Bz-ATP samples and LPS only samples. Data was plotted as response (% control) versus concentration to generate IC50 values. […] In Table 2, when the data cell has been left blank, it is intended to mean that the compound was not tested in that assay.

[2] = biological target: T1, P2X7; assay: Radioligand binding, human P2X7-1321N1 cell membranes, tritiated A-804598 tracer; conditions: 1 hour at 4° C.
Description: (B) Radioligand binding: human or rat P2X7-1321N1 cells were collected and frozen @ −80° C. On the day of the experiment, cell membrane preparations were made according to standard published methods. […] The compound can be prepared as described in the literature. […] The assay was terminated by filtration (GF/B filters pre-soaked with 0.3% PEI) and washed with washing buffer (Tris-HCl 50 mM). The IC50 generated in the binding assay was corrected for tracer concentration and affinity of the tracer to derive at the affinity (Ki) of the test compounds.

[3] = biological target: T2, rat P2X7 (Rattus norvegicus (Rat), UniProt Q64663); assay: Radioligand binding, rat P2X7-1321N1 cell membranes, tritiated A-804598 tracer; conditions: 1 hour at 4° C.
T2 sequence (Q64663 whole entry): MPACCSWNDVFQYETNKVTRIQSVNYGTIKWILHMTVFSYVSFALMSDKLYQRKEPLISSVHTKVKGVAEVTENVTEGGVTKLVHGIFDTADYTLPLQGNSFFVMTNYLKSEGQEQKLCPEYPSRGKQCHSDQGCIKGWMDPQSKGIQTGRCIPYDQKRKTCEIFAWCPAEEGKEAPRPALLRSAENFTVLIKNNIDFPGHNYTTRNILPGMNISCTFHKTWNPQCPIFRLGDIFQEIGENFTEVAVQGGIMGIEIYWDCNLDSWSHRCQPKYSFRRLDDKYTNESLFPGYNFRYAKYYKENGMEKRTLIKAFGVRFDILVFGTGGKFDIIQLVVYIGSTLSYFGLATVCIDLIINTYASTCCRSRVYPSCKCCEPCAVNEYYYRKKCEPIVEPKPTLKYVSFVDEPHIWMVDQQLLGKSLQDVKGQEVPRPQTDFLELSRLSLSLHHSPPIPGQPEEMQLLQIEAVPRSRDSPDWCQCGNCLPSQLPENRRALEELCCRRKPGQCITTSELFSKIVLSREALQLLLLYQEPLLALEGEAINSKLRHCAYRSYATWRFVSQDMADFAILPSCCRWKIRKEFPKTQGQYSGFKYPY
Description: (B) Radioligand binding: human or rat P2X7-1321N1 cells were collected and frozen @ −80° C. On the day of the experiment, cell membrane preparations were made according to standard published methods. The total assay volume was 100 μl:10 μl compound (10×)+(b) 40 μl tracer (2.5×)+50 μl membrane (2×). The tracer used for the assay was tritiated A-804598. The compound can be prepared as described in the literature. (Donnelly-Roberts, D. Neuropharmacology 2009, 56 (1), 223-229.) Compounds, tracer and membranes were incubated for 1 hour @ 4° C. The assay was terminated by filtration (GF/B filters pre-soaked with 0.3% PEI) and washed with washing buffer (Tris-HCl 50 mM). The IC50 generated in the binding assay was corrected for tracer concentration and affinity of the tracer to derive at the affinity (Ki) of the test compounds.

[4] = biological target: T1, P2X7; assay: Ca2+ flux (FLIPR) in 1321N1 cells expressing recombinant human P2X7 channel; assay type: cell-based; conditions: 250 μM BzATP
Description: (§1) (A) Ca^2+ Flux: 1321N1 cells expressing the recombinant human, rat or mouse P2X7 channel was cultured in HyQ DME/(HyClone/Dulbecco's Modified Eagle Medium) high glucose supplemented with 10% Fetal Bovine Serum (FBS) and appropriate selection marker. Cells were seeded at a density of 25000 cells/well (96-well clear bottom black walled plates) in 100 μl volume/well. On the day of the experiment, cell plates were washed with assay buffer, containing (in mM): 130 NaCl, 2 KCl, 1 CaCl2, 1 MgCl2, 10 HEPES, 5 glucose; pH 7.40 and 300 mOs. After the wash, cells were loaded with the Calcium-4 dye (Molecular Device) and incubated in the dark for 60 minutes. Test compounds were prepared at 250× the test concentration in neat DMSO. Intermediate 96-well compound plates were prepared by transferring 1.2 μL of the compound into 300 μL of assay buffer. A further 3× dilution occurred when transferring 50 μL/well of the compound plate to 100 μL/well in the cell plate. Cells were incubated with test compounds and dye for 30 minutes. […] The fluorescence change was measured 180 seconds after adding the agonist.

[5] = biological target: T2, rat P2X7; assay: Ca2+ flux (FLIPR) in 1321N1 cells expressing recombinant rat P2X7 channel; assay type: cell-based; conditions: 250 μM BzATP
Description: as §1

Compound | remaining activity at 10 µM [1] | PBMC 1 μM (% control) [1] | Ki [2] | Ki [3] | IC50 [4] | IC50 [5]
O=C1c2nnc(-c3cnccn3)n2C[C@@H](C2CC2)N1Cc1cccc(C(F)(F)F)c1Cl (single isomer, unassigned) [Example 62] | 14.1% | – | – | – | – | –
O=C1c2nnc(-c3cnccn3)n2C[C@H](C2CC2)N1Cc1cccc(C(F)(F)F)c1Cl (single isomer, unassigned) [Example 63] | 27.3% | – | – | – | – | –
O=C1c2nnc(-c3cnccn3)n2CCN1Cc1cccc(Cl)c1Cl [Example 2, 7-(2,3-Dichlorobenzyl)-3-pyrazin-2-yl-6,7-dihydro[1,2,4]triazolo[4,3-a]pyrazin-8(5H)-one] | – | 50.6 % control | – | – | – | –
O=C1c2nnc(-c3cnccn3)n2CCN1Cc1cccc(C(F)(F)F)c1Cl [Example 3, 7-[2-Chloro-3-(trifluoromethyl)benzyl]-3-pyrazin-2-yl-6,7-dihydro[1,2,4]triazolo[4,3-a]pyrazin-8(5H)-one] | – | −0.6 % control | 6.3 nM | 12.6 nM | 44.2 nM | 9310 nM
C[C@@H]1Cn2c(nnc2-c2cnccn2)C(=O)N1Cc1cccc(Cl)c1Cl [Example 12, (6R)-7-(2,3-Dichlorobenzyl)-6-methyl-3-pyrazin-2-yl-6,7-dihydro[1,2,4]triazolo[4,3-a]pyrazin-8(5H)-one] | 20.6% | – | – | – | – | –
C[C@H]1Cn2c(nnc2-c2cncc(F)c2)C(=O)N1Cc1cccc(C(F)(F)F)c1Cl [Example 45, (6S)-7-[2-Chloro-3-(trifluoromethyl)benzyl]-3-(5-fluoropyridin-3-yl)-6-methyl-6,7-dihydro[1,2,4]triazolo[4,3-a]pyrazin-8(5H)-one] | – | – | 6.3 nM | 5 nM | 100 nM | 12600 nM
C[C@H]1Cn2c(nnc2C2CCCN(C(=O)OC(C)(C)C)C2)C(=O)N1Cc1cccc(C(F)(F)F)c1Cl (stereo partly drawn) [Example 59, (6S)-tert-Butyl3-{7-[2-chloro-3-(trifluoromethyl)benzyl]-6-methyl-8-oxo-5,6,7,8-tetrahydro[1,2,4]triazolo[4,3-a]pyrazin-3-yl}piperidine-1-carboxylate] | 10.9% | – | – | – | – | 1140 nM
C[C@H]1Cn2c(nnc2C2CCCNC2)C(=O)N1Cc1cccc(C(F)(F)F)c1Cl (stereo partly drawn) [Example 60, (6S)-7-[2-Chloro-3-(trifluoromethyl)benzyl]-6-methyl-3-piperidin-3-yl-6,7-dihydro[1,2,4]triazolo[4,3-a]pyrazin-8(5H)-one] | – | – | 631 nM | – | > 10000 nM | > 10000 nM
CC[C@H]1Cn2c(nnc2-c2cnccn2)C(=O)N1Cc1cccc(C(F)(F)F)c1Cl [Example 71, (6S)-7-[2-Chloro-3-(trifluoromethyl)benzyl]-6-ethyl-3-pyrazin-2-yl-6,7-dihydro[1,2,4]triazolo[4,3-a]pyrazin-8(5H)-one] | – | – | 1.3 nM | – | 0.3 nM | 10.3 nM

Further lines, results first:

remaining activity at 10 µM [1] | PBMC 1 μM (% control) [1] | Ki [2] | Ki [3] | IC50 [4] | IC50 [5] | Compound
– | – | 5 nM | 2 nM | < 1 nM | 316 nM | C[C@H]1Cn2c(nnc2-c2ccccn2)C(=O)N1Cc1cccc(C(F)(F)F)c1Cl [Example 18, (6S)-7-[2-Chloro-3-(trifluoromethyl)benzyl]-6-methyl-3-pyridin-2-yl-6,7-dihydro[1,2,4]triazolo[4,3-a]pyrazin-8(5H)-one]
– | – | 4 nM | 5 nM | 3.2 nM | 2000 nM | C[C@H]1Cn2c(nnc2-c2ncco2)C(=O)N1Cc1cccc(C(F)(F)F)c1Cl [Example 20, (6S)-7-[2-Chloro-3-(trifluoromethyl)benzyl]-6-methyl-3-(1,3-oxazol-2-yl)-6,7-dihydro[1,2,4]triazolo[4,3-a]pyrazin-8(5H)-one]
– | – | 3.2 nM | 3.2 nM | 2.5 nM | 1220 nM | C[C@H]1Cn2c(nnc2-c2ccn(C)n2)C(=O)N1Cc1cccc(C(F)(F)F)c1Cl [Example 23, (6S)-7-[2-Chloro-3-(trifluoromethyl)benzyl]-6-methyl-3-(1-methyl-1H-pyrazol-3-yl)-6,7-dihydro[1,2,4]triazolo[4,3-a]pyrazin-8(5H)-one]
– | – | 3.2 nM | 1 nM | 1.2 nM | 375 nM | Cc1cc(-c2nnc3n2C[C@H](C)N(Cc2cccc(C(F)(F)F)c2Cl)C3=O)n[nH]1 [Example 26, (6S)-7-[2-Chloro-3-(trifluoromethyl)benzyl]-6-methyl-3-(5-methyl-1H-pyrazol-3-yl)-6,7-dihydro[1,2,4]triazolo[4,3-a]pyrazin-8(5H)-one]
– | – | 4 nM | 5.6 nM | 1 nM | 122 nM | C[C@H]1Cn2c(nnc2-c2cccnc2)C(=O)N1Cc1cccc(C(F)(F)F)c1Cl [Example 29, (6S)-7-[2-Chloro-3-(trifluoromethyl)benzyl]-6-methyl-3-pyridin-3-yl-6,7-dihydro[1,2,4]triazolo[4,3-a]pyrazin-8(5H)-one]
3.3% | – | – | – | 0.9 nM | – | C[C@H]1Cn2c(nnc2-c2ccc(F)cn2)C(=O)N1Cc1cccc(C(F)(F)F)c1Cl [Example 30, (6S)-7-[2-Chloro-3-(trifluoromethyl)benzyl]-3-(5-fluoropyridin-2-yl)-6-methyl-6,7-dihydro[1,2,4]triazolo[4,3-a]pyrazin-8(5H)-one]
– | – | 12.6 nM | – | 13.2 nM | 543 nM | Cc1ncccc1-c1nnc2n1C[C@H](C)N(Cc1cccc(C(F)(F)F)c1Cl)C2=O [Example 48, (6S)-7-[2-Chloro-3-(trifluoromethyl)benzyl]-6-methyl-3-(2-methylpyridin-3-yl)-6,7-dihydro[1,2,4]triazolo[4,3-a]pyrazin-8(5H)-one]
– | – | 10 nM | – | 1.5 nM | 5.1 nM | CC[C@H]1Cn2c(nnc2-c2cc[nH]n2)C(=O)N1Cc1cccc(C(F)(F)F)c1Cl [Example 74, (6S)-7-[2-Chloro-3-(trifluoromethyl)benzyl]-6-ethyl-3-(1H-pyrazol-3-yl)-6,7-dihydro[1,2,4]triazolo[4,3-a]pyrazin-8(5H)-one]
– | – | 2.5 nM | 1.6 nM | < 1 nM | 158 nM | CC[C@H]1Cn2c(nnc2-c2ccc(F)cn2)C(=O)N1Cc1cccc(C(F)(F)F)c1Cl [Example 76, (6S)-7-[2-Chloro-3-(trifluoromethyl)benzyl]-6-ethyl-3-(5-fluoropyridin-2-yl)-6,7-dihydro[1,2,4]triazolo[4,3-a]pyrazin-8(5H)-one]
– | – | 31.6 nM | – | 42.5 nM | 1560 nM | Cc1cccc(C)c1CN1C(=O)c2nnc(-c3cnccn3)n2C[C@@H]1C [Example 87, (6S)-7-(2,6-Dimethylbenzyl)-6-methyl-3-pyrazin-2-yl-6,7-dihydro[1,2,4]triazolo[4,3-a]pyrazin-8(5H)-one]
– | – | 5 nM | – | 4 nM | 6040 nM | C[C@H]1Cn2c(nnc2-c2cnccn2)C(=O)N1Cc1cccc(C(F)(F)F)c1 [Example 88, (6S)-6-Methyl-3-pyrazin-2-yl-7-[3-(trifluoromethyl)benzyl]-6,7-dihydro[1,2,4]triazolo[4,3-a]pyrazin-8(5H)-one]
